Assay results: patent US5179088A, “1-Carba(dethia)cephalosporin antibiotics” (Eli Lilly and Company, priority 1990, dated 1993)

What was measured:
Format in all cases: cell-based
Parameters in all cases: unit not given here
[1] = tested on: Staphylococcus Aureus; assay: in vitro antibacterial activity, agar dilution (Staphylococcus aureus)
Experimental: (§1) *minimum inhibitory concentrations were determined by the Agardilution

[2] = tested on: Staphylococcus Epi; assay: in vitro antibacterial activity, agar dilution (Staphylococcus epi)
Experimental: as §1

[3] = tested on: Streptococcus A; assay: in vitro antibacterial activity, agar dilution (Streptococcus A); conditions: strain C203
Experimental: as §1

[4] = tested on: Streptococcus pn; assay: in vitro antibacterial activity, agar dilution (Streptococcus pn); conditions: strain PARK
Experimental: as §1

[5] = tested on: Streptococcus D; assay: in vitro antibacterial activity, agar dilution (Streptococcus D)
Experimental: as §1

[6] = tested on: H. Influ.; assay: in vitro antibacterial activity, agar dilution (H. influ.)
Experimental: as §1

[7] = tested on: E. coli; assay: in vitro antibacterial activity, agar dilution (E. coli)
Experimental: as §1

[8] = tested on: Klebsiella; assay: in vitro antibacterial activity, agar dilution (Klebsiella)
Experimental: as §1

[9] = tested on: Enterbacter Aerogenes; assay: in vitro antibacterial activity, agar dilution (Enterobacter aerogenes)
Experimental: as §1

[10] = tested on: Enterbacter Cloacea; assay: in vitro antibacterial activity, agar dilution (Enterobacter cloacae)
Experimental: as §1

[11] = tested on: Salmonella; assay: in vitro antibacterial activity, agar dilution (Salmonella)
Experimental: as §1

[12] = tested on: Pseudomonas; assay: in vitro antibacterial activity, agar dilution (Pseudomonas)
Experimental: as §1

[13] = tested on: Serratia; assay: in vitro antibacterial activity, agar dilution (Serratia)
Experimental: as §1

[14] = tested on: Shig. sonn; assay: in vitro antibacterial activity, agar dilution (Shig. sonn); conditions: strain N9
Experimental: as §1

[15] = tested on: Proteus morg; assay: in vitro antibacterial activity, agar dilution (Proteus morg); conditions: strain PR15
Experimental: as §1

[16] = tested on: Proteus incon; assay: in vitro antibacterial activity, agar dilution (Proteus incon); conditions: strain PR33
Experimental: as §1

[17] = tested on: Proteus rett; assay: in vitro antibacterial activity, agar dilution (Proteus rett); conditions: strain C24
Experimental: as §1

[18] = tested on: Citro; assay: in vitro antibacterial activity, agar dilution (Citro); conditions: strain CF17
Experimental: as §1

[19] = tested on: Acin; assay: in vitro antibacterial activity, agar dilution (Acin); conditions: strain AC12
Experimental: as §1

Row | SMILES | minimum inhibitory concentration ([1]; strain S13E) | minimum inhibitory concentration ([1]; strain V41) | minimum inhibitory concentration ([1]; strain X1.1) | minimum inhibitory concentration ([1]; strain X400) | minimum inhibitory concentration ([2]; strain 222) | minimum inhibitory concentration ([2]; strain 270) | minimum inhibitory concentration [3] | minimum inhibitory concentration [4] | minimum inhibitory concentration ([5]; strain 2041) | minimum inhibitory concentration ([5]; strain X66) | minimum inhibitory concentration ([6]; res, strain 76) | minimum inhibitory concentration ([6]; sens, strain C.L.) | minimum inhibitory concentration ([7]; strain EC14) | minimum inhibitory concentration ([7]; strain N10) | minimum inhibitory concentration ([8]; strain KAE) | minimum inhibitory concentration ([8]; strain X26) | minimum inhibitory concentration ([8]; strain X68) | minimum inhibitory concentration ([9]; strain C32) | minimum inhibitory concentration ([9]; strain EB17) | minimum inhibitory concentration ([10]; strain 265A) | other results
1 | CO/N=C(\C(=O)N[C@@H]1C(=O)N2C(C(=O)O)=C(c3csc(-c4ccc(F)cc4)n3)CC[C@H]12)c1csc(N)n1 [Example 37, 7β-[(2-aminothiazol-4-yl)-Z-methoximinoacetylamino]-1-carba-(1-dethia)-3-[2-(4-fluorophenyl)thiazol-4-yl]-3-cephem-4-carboxylic acid] | > 128 | 2 | 1 | > 128 | 2 | 32 | < .008 | < .008 | 4 | > 128 | .015 | .03 | .5 | 2 | 2 | < .008 | .5 | 2 | 1 | > 128 | minimum inhibitory concentration ([10]; strain EB5): 2; minimum inhibitory concentration ([11]; strain 1335): 2; minimum inhibitory concentration ([11]; strain X514): .5; minimum inhibitory concentration ([12]; strain PS18): > 128; minimum inhibitory concentration ([12]; strain PS72): > 128; minimum inhibitory concentration ([12]; strain X239): > 128; minimum inhibitory concentration ([12]; strain X528): > 128; minimum inhibitory concentration ([13]; strain SE3): 8; minimum inhibitory concentration ([13]; strain X99): 4; minimum inhibitory concentration [14]: 1; minimum inhibitory concentration [15]: 2; minimum inhibitory concentration [16]: .125; minimum inhibitory concentration [17]: .125; minimum inhibitory concentration [18]: 4; minimum inhibitory concentration [19]: 128
2 | CO/N=C(\C(=O)N[C@@H]1C(=O)N2C(C(=O)O)=C(c3csc(C(c4ccccc4)c4ccccn4)n3)CC[C@H]12)c1csc(N)n1 (stereo partly drawn) [Example 38, 7β-[(2-aminothiazol-4-yl)-Z-methoximinoacetylamino]-1-carba-(1-dethia)-3-[2-(phenyl)(2-pyridyl)methyl)thiazol-4-yl-3-cephem-4-carboxylic acid] | > 128 | 32 | 4 | > 128 | 64 | 64 | < .008 | .015 | 8 | > 128 | .125 | 2 | 4 | 8 | 128 | .125 | 4 | 8 | 8 | > 128 | minimum inhibitory concentration ([7]; strain TEM): 4; minimum inhibitory concentration ([10]; strain EB5): 8; minimum inhibitory concentration ([11]; strain 1335): 8; minimum inhibitory concentration ([11]; strain X514): 4; minimum inhibitory concentration ([12]; strain PS18): > 128; minimum inhibitory concentration ([12]; strain PS72): > 128; minimum inhibitory concentration ([12]; strain X239): > 128; minimum inhibitory concentration ([12]; strain X528): > 128; minimum inhibitory concentration ([13]; strain SE3): 64; minimum inhibitory concentration ([13]; strain X99): 8; minimum inhibitory concentration [14]: 8; minimum inhibitory concentration [15]: 32; minimum inhibitory concentration [16]: 4; minimum inhibitory concentration [17]: 4; minimum inhibitory concentration [18]: 32; minimum inhibitory concentration [19]: 64
3 | CO/N=C(\C(=O)N[C@@H]1C(=O)N2C(C(=O)O)=C(c3csc(N)n3)CC[C@H]12)c1csc(N)n1 [Example 39] | > 128 | 8 | 4 | > 128 | 32 | 16 | < .008 | .015 | 8 | > 128 | .06 | .06 | .5 | 1 | 2 | .015 | .5 | 1 | .5 | > 128 | minimum inhibitory concentration ([7]; strain TEM): .5; minimum inhibitory concentration ([10]; strain EB5): 2; minimum inhibitory concentration ([11]; strain 1335): 2; minimum inhibitory concentration ([11]; strain X514): 1; minimum inhibitory concentration ([12]; strain PS18): > 128; minimum inhibitory concentration ([12]; strain PS72): > 128; minimum inhibitory concentration ([12]; strain X239): > 128; minimum inhibitory concentration ([12]; strain X528): > 128; minimum inhibitory concentration ([13]; strain SE3): 8; minimum inhibitory concentration ([13]; strain X99): 1; minimum inhibitory concentration [14]: .25; minimum inhibitory concentration [15]: 4; minimum inhibitory concentration [16]: .25; minimum inhibitory concentration [17]: .25; minimum inhibitory concentration [18]: 8; minimum inhibitory concentration [19]: 128
